# Source: ChEMBL document CHEMBL5370531, “Design, synthesis and pharmacological evaluation of 2,3-dihydrobenzofuran IRAK4 inhibitors for the treatment of diffuse large B-cell lymphoma” (Eur J Med Chem, 2023)
# Tested on: OCI-Ly10
# Assay: Induction of apoptosis in human OCILY10 cells assessed as late apoptotic cells at 1 uM incubated for 24 hrs by Annexin V-FITC/PI staining based flow cytometry (reference value: 3.71 %)
# Type: functional
compound,measurement,value
Cn1cc(-c2cc3c(cc2NC(=O)c2coc(-c4ccnc(N)c4)n2)CC(C)(C)O3)cn1,Activity,33.7%
